This is an account of results in patent publication US9862754B2, “Peptide analogs for treating diseases and disorders” (KeyBioscience AG, priority 2011, dated 2018).

Holding throughout (format): in vivo, rat
Assay [1] can be described thus: Example 7: oral glucose tolerance test in Zucker Diabetic Fatty rats. To be noted: ZDF rats; metformin 400 mg/kg/day oral, UGP302 5 μg/kg/day s.c. On the procedure:
(§1) To assess the potential of UGP302 (SEQ ID NO: 15) in combination with metformin, Zucker Diabetic Fatty rats were used. At the age of 6 weeks 40 rats were randomized into four groups according to HbA1c, FPG and BW. The groups were: Control (Vehicle), Metformin 400 mg/kg/day, UGP302 5 μg/kg/day and the combination of the two molecules in the stated respective amounts. The treatments were given once daily, and metformin was dosed orally, while UGP302 was given subcutaneously, and the animals were treated for 8 weeks. Fasting blood glucose (FPG) and non-fasted blood glucose (PPG) were monitored biweekly, while HbA1c was measured at termination.
(§2) To further assess the effect of both single doses of each molecule and the combination of these at those same doses, the rats underwent an oral glucose tolerance test (OGTT, FIGS. 23A-23B) and an insulin tolerance test (ITT, FIGS. 24A-24B).

Assay [2] in a line: Example 7: combination with metformin in Zucker Diabetic Fatty rats, FPG, PPG, HbA1c. To be noted: ZDF rats; 8 weeks once daily; metformin 400 mg/kg/day oral, UGP302 5 μg/kg/day s.c. Here is the method: as §1
A short description of assay [3]: Example 7: insulin tolerance test in Zucker Diabetic Fatty rats. To be noted: ZDF rats; metformin 400 mg/kg/day oral, UGP302 5 μg/kg/day s.c. Here is the method:
as §1, §2

The nature of assay [4]: Example 3: short-term oral treatment, body weight and food intake in DIO rats. The conditions noted are these: for reduction in body weight vs oral sCT at same dose: DIO rats; for energy balance vs equivalent doses of oral sCT: 0.5, 1 and 2 mg/kg doses p.o., male DIO rats. Here is the method: The study was performed in male Levin-DIO rats (diet-sensitive) and Levin-DR (diet-resistant) (TacLevin: CD (SD) DIO) (Taconic, Hudson, N.Y., U.S.A.) obtained at age 6-7 weeks. On arrival, DIO rats were given high fat diet (60 kcal %) (#D12495, Research Diets Inc., New Brunswick, N.J., USA) and kept on the same diet for 12 weeks prior to and during the experiment. DR rats were given low-fat diet and served as control group. Animals were pair-wise housed throughout the study. Rats were handled and pre-dosed once daily with MilliQ H2O for 2-3 weeks prior to experimental start to reduce stress-induced hyperglycemia. On the day prior to study start animals were given a single dose of vehicle. Baseline parameters were recorded in an overnight fasting (16 h) condition. Rats were randomized into treatment groups based on fasting body weight (BW) and fasting plasma glucose (FPG). Body weight, food and water intake were recorded prior to and at study end.
Animals treated with oral sCT or oral UGP284/UGP298/UGP302 received doses of 0.5 mg/kg, 1.0 mg/kg or 2.0 mg/kg combined with 150 mg/kg 5-CNAC—all dissolved in milliQ H2O.
(§3) Drug administration were given by per oral (p.o.) gavage b.i.d. during the study period and as single dose in the morning prior to start of OGTT.
(§4) Following the initial (1st) OGTT, animals were randomized into treatment groups based on FBG and BW. Animals were pre-treated 3 days (b.i.d.) prior to 2nd OGTT. The study was performed in an x-over design with each animal being its own control.
(§5) Statistical analysis was performed by one-way ANOVA followed by the Dunnett's post hoc test for multiple comparison. Student's t-test was performed to compare two paired group. All analysis was performed using GRAPHPAD PRISM software (GraphPad Prism, San Diego, Calif. U.S.A). Incremental area under curve (iAUC) during OGTT was calculated by the trapezoidal method. A value of P<0.05 was considered to be significant. All data are presented as mean±standard error of the mean (SEM).
FIG. 9A, FIG. 9B, FIG. 9C, FIG. 9D, FIG. 9E, and FIG. 9F show the effect of three different doses of oral sCT/UGP284/UGP298/UGP302 containing 0.5, 1 and 2 mg/kg compound were applied by gavage twice daily to 4 groups of rats for 3 days. * P<0.05, ** P<0.01 vs oral sCT. Results are presented as means±SEM.

Assay [5] is described as follows: Example 3: OGTT after 3 days of oral treatment in DIO rats. To be noted: doses of 0.5, 1 and 2 mg/kg p.o. On the procedure:
as §3
Animals were given 2 g/kg single dose dissolved in milliQ H20.
as §4
OGTT Following Overnight Fasting (16 h):
Blood sampling and glycemia were measured by heated tail venous puncture. Whole blood glucose levels were determined with an ACCU-CHEK® Avia blood glucose meter (Roche Diagnostics, Rotkreuz, Switzerland). Blood (approx 300 μl) is collected in 1 ml MiniCollect K3EDTA plasma-tube (Greiner-Bio-One GmbH, Frickenhausen, Germany), inverted, and stored on ice. Tubes are centrifuged 3000×g (5000 rpm in table centrifuge) for 10 min at 4° C. and plasma obtained. Plasma samples are stored at −20° C. until analysis. A total of ˜2.5 ml blood is obtained during OGTT (˜0.3% of body weight).
as §5
FIG. 10A, FIG. 10B, FIG. 10C, FIG. 10D, FIG. 10E, and FIG. 10F show the effect of oral sCT versus oral UGPs on glucose tolerance during OGTT in DIO rats. Three different doses of oral sCT/UGP284/UGP298/UGP302 containing 0.5, 1 and 2 mg/kg compound were applied by gavage twice daily to 4 groups of rats for 3 days prior to OGTT. The experimental set-up was a cross-over design. * P<0.05, ** P<0.01, *** P<0.001 vs oral vehicle. Results are presented as means±SEM.

Numbered stars: 1 amine (or outer) side, 2 acyl side, 3 side chain; on linkers, the order of the positions; unused ones are H or OH. * marks the point of attachment. Suc = O=C(CCC(=O)[*:2])[*:1]; Propionyl = CCC(=O)*

Regarding `CN(C)C(=N)N=C(N)N` [metformin, reference compound], the “glucose tolerance (OGTT)” value in assay [1] is listed as “individually improve”. In assay [2], the “fasting blood glucose (FPG)” value is given as “reduced” and the “non-fasted blood glucose (PPG)” value was “reduced”. Also, the “insulin tolerance (ITT)” value in assay [3] is recorded as “individually improve”.
As to “PrCSNLSTCVLGKLSQELHKLQTYPRTNTGSGTP-NH2 (Propionyl-CSNLSTCVLGKLSQELHKLQTYPRTNTGSGTP-NH2; ends and bridges not checked) [UGP284, calcitonin mimetic]”, the “reduction in body weight vs oral sCT at same dose” value in assay [4] (2 mg/kg p.o. b.i.d. for 3 days) is reported as “significantly difference at 2 mg/kg dose”. For the same compound, the “energy balance vs equivalent doses of oral sCT” value in assay [4] is recorded as “superiority to equivalent doses of oral sCT”. For the same compound, in assay [5], the “glucose tolerance during OGTT” value is “improvement in glucose tolerance”.
For “SuccCSNLSTCVLGKLSQELHKLQTYPRTNTGSGTP-NH2 (Suc-CSNLSTCVLGKLSQELHKLQTYPRTNTGSGTP-NH2; ends and bridges not checked) [UGP298, calcitonin mimetic]”, the “reduction in body weight vs oral sCT at same dose” value in assay [4] (1 mg/kg p.o. b.i.d. for 3 days) and in assay [4] (2 mg/kg p.o. b.i.d. for 3 days) was “significantly different when compared with oral sCT” in each case. Further, in assay [4], the “energy balance vs equivalent doses of oral sCT” value is listed as “superiority to equivalent doses of oral sCT”. In addition, the “glucose tolerance during OGTT” value in assay [5] is given as “improvement in glucose tolerance”.
